Measured values taken from patent publication US20220185802A1, “BENZOXAZINE MONOMERS AND POLYMERIC COATINGS” (LUXEMBOURG INSTITUTE OF SCIENCE AND TECHNOLOGY (LIST), priority 2019, published 2022).

Tests used:
THP-1 cells = assay: Pro-inflammatory activity of coated samples (FIG. 20); type: cell-based, human; details: samples coated with film derived from the compound (monomers in combination with P-e; P-e alone)
Excerpt: (§1) In human, inflammation can arise through the activation of nuclear factor-kappaB (NF-κB), a pivotal transcription factor in chronic inflammatory diseases, inducing the expression of numerous inflammation related-genes such as those for tumor necrosis factor α (TNFα) and cytokines such as IL-1β, IL-10, and IL-6 or IL-8 (Medzhitov R., Nature, 2008, 454, 428-435). In the present invention, an inflammation-relevant human cell line, i.e. the monocytes THP-1 cells, are used to evaluate the potential of the coatings to reduce the inflammation. Their cytotoxicity towards are first evaluated using the resazurin reduction test (O'Brien J. et al., Eur. J. Biochem., 2000, 267, 5421-5426.) General anti-inflammatory properties are then determined using THP-1 cells transfected with a reporter plasmid expressing the secreted alkaline phosphatase (SEAP) gene under the control of an NF-κB-inducible promoter. TNFα are used as an inflammation inducer and the data are expressed as percentage inhibition of NF-κB activation. In addition, the effects of the most promising monomers is further evaluated on inflammation-related genes by real time qPCR using THP-1 cells differentiated into macrophages (Andre C. M. et al., J. Agric. Food. Chem, 2013, 61, 2773-2779) and IL-1β, IL-10, IL-6, and COX-2 as markers (Kaulmann A. et al., Mol. Nutr. Food Res., 2016, 60, 992-1005).

NF-κB activation = assay: Inflammation inhibitory activity, NF-κB-inducible SEAP reporter in THP-1 cells with TNFα as inducer; type: cell-based, human; details: samples coated with polymer formed from the monomer in combination with P-e, film about 120 μm
Excerpt: as §1

SMILES | pro-inflammatory properties (THP-1 cells) | inhibition of the inflammation (NF-κB activation; TNFα as inducer) [%] | anti-inflammatory effect (NF-κB activation; in comparison with P-e or 13)
CC=Cc1cc2c(c(OC)c1)OCN(Cc1ccco1)C2 [Monomer 12] | only the sample coated with the film derived from compound 13 shows a trend | ~20 | strong anti-inflammatory effect
c1ccc2c(c1)CN(CCN1COc3ccccc3C1)CO2 [P-e, reference compound] | only the sample coated with the film derived from compound 13 shows a trend | – | –
